According to ChEMBL document CHEMBL5523691, “SAR study of N'-(Salicylidene)heteroarenecarbohydrazides as promising antifungal agents” (Bioorg Med Chem, 2024):
≈ marks a conversion by molar mass, not a printed value. Calls of active or inactive are those of the source. The calls are words filed in the database; no cut-off is given here.

Assays:
Cryptococcus neoformans [1] = assay: Antifungal activity against wild type Cryptococcus neoformans H99 assessed as inhibition of fungal growth incubated for 24 to 72 hrs by optical density based analysis; format: functional; conditions: time 24-72 hrs
[2] = Selectivity index, ratio of LD50 for human A549 cells to MIC80 for Cryptococcus neoformans H99; format: toxicity; conditions: read-out: Selectivity Index
Cryptococcus neoformans [3] = assay: Fungicidal activity against wild type Cryptococcus neoformans H99 assessed as minimum concentration required to kill fungus measured after 48 hrs by time-kill assay; format: functional
[4] = Cytotoxicity against human A549 cells assessed as cell killing measured after 24 to 48 hrs by MTT assay; format: toxicity, cell-based; conditions: time 24-48 hrs, read-out: LD50 (the source's name)
Cryptococcus neoformans [5] = assay: Fungistatic activity against wild type Cryptococcus neoformans H99 assessed as inhibition of fungal growth incubated for 12 to 48 hrs by time-kill assay; format: functional, organism-based; conditions: time 12-48 hrs
Candida albicans = assay: Antifungal activity against Candida albicans assessed as inhibition of fungal growth incubated for 24 to 72 hrs by optical density based analysis; format: functional; conditions: time 24-72 hrs
Cryptococcus neoformans [6] = assay: Fungicidal activity against wild type Cryptococcus neoformans H99 assessed as minimum concentration required to kill fungus measured after 24 hrs by time-kill assay; format: functional
Aspergillus fumigatus = assay: Antifungal activity against Aspergillus fumigatus assessed as inhibition of fungal growth incubated for 24 to 72 hrs by optical density based analysis; format: functional; conditions: time 24-72 hrs
Cryptococcus neoformans [7] = assay: Synergistic antifungal activity against wild type Cryptococcus neoformans H99 assessed as fractional inhibitory concentration index in presence of caspofungin; format: functional
Cryptococcus neoformans [8] = assay: Antifungal activity against wild type Cryptococcus neoformans H99 assessed as inhibition of fungal growth in presence of caspofungin; format: functional
Cryptococcus neoformans [9] = assay: Synergistic antifungal activity against wild type Cryptococcus neoformans H99 assessed as fractional inhibitory concentration index in presence of amphotericin B; format: functional
Cryptococcus neoformans [10] = assay: Synergistic antifungal activity against wild type Cryptococcus neoformans H99 assessed as fractional inhibitory concentration index in presence of fluconazole; format: functional
Cryptococcus neoformans [11] = assay: Antifungal activity against wild type Cryptococcus neoformans H99 assessed as inhibition of fungal growth in presence of amphotericin B; format: functional
Cryptococcus neoformans [12] = assay: Antagonistic antifungal activity against wild type Cryptococcus neoformans H99 in presence of amphotericin B; format: functional, organism-based
Cryptococcus neoformans [13] = assay: Antagonistic antifungal activity against wild type Cryptococcus neoformans H99 in presence of caspofungin; format: functional, organism-based
Cryptococcus neoformans [14] = assay: Antagonistic antifungal activity against wild type Cryptococcus neoformans H99 in presence of fluconazole; format: functional, organism-based
Cryptococcus neoformans [15] = assay: Antifungal activity against wild type Cryptococcus neoformans H99 assessed as inhibition of fungal growth in presence of fluconazole; format: functional

O=C(N/N=C/c1cc(Br)cc(Br)c1O)c1ncc[nH]1
MIC80 (Cryptococcus neoformans [1]): 2 µg/mL (≈ 5.15 µM)

O=C(N/N=C/c1cc(Br)ccc1O)c1cc2cc(Br)ccc2cn1
MIC80 (Cryptococcus neoformans [1]): > 16 µg/mL

O=C(N/N=C/c1ccc(Br)cc1O)c1cc[nH]c1
MIC80 (Cryptococcus neoformans [1]): 4 µg/mL (≈ 13 µM)

O=C(N/N=C/c1cc(Br)ccc1O)c1ccc[nH]1
MIC80 (Cryptococcus neoformans [1]): 16 µg/mL (≈ 51.9 µM)

O=C(N/N=C/c1cc(Br)cc(Br)c1O)c1ccc(C(F)(F)F)s1
selectivity ratio [2]: 16.6 | MIC80 (Cryptococcus neoformans [1]): 0.06 µg/mL (≈ 0.127 µM) | MFC100 (Cryptococcus neoformans [3]): 0.25 µg/mL (≈ 0.53 µM) | CC50 [4]: 1 µg/mL (≈ 2.12 µM)

O=C(N/N=C/c1cc(Br)cc(Br)c1O)c1ccco1
MIC80 (Cryptococcus neoformans [1]): 8 µg/mL (≈ 20.6 µM)

O=C(N/N=C/c1ccc(Br)cc1O)c1cc[nH]n1
MIC80 (Cryptococcus neoformans [1]): 2 µg/mL (≈ 6.47 µM)

O=C(N/N=C/c1cc(Br)cc(Br)c1O)c1ccc(C(F)(F)F)o1
MIC80 (Cryptococcus neoformans [1]): 2 µg/mL (≈ 4.39 µM)

O=C(N/N=C/c1c(O)ccc2ccccc12)c1cc(Br)c(Br)o1
Activity (Cryptococcus neoformans [5]): Active | selectivity ratio [2]: 267 | MIC80 (Cryptococcus neoformans [1]): 0.12 µg/mL (≈ 0.274 µM) | CC50 [4]: 32 µg/mL (≈ 73 µM)

OC(Cn1cncn1)(Cn1cncn1)c1ccc(F)cc1F [FLUCONAZOLE]
MIC80 (Cryptococcus neoformans [1]): 2 µg/mL (≈ 6.53 µM) | MIC80 (Candida albicans): 1 µg/mL (≈ 3.27 µM)

O=C(N/N=C/c1cc(Br)ccc1O)c1cc[nH]n1
MIC80 (Cryptococcus neoformans [1]): 4 µg/mL (≈ 12.9 µM)

O=C(N/N=C/c1ccc(Br)cc1O)c1ccc(C(F)(F)F)s1
selectivity ratio [2]: 8.3 | MIC80 (Cryptococcus neoformans [1]): 0.06 µg/mL (≈ 0.153 µM) | MFC100 (Cryptococcus neoformans [6]): 0.5 µg/mL (≈ 1.27 µM) | CC50 [4]: 0.5 µg/mL (≈ 1.27 µM)

O=C(N/N=C/c1cc(Br)cc(Br)c1O)c1cc2ccccc2cn1
MIC80 (Cryptococcus neoformans [1]): > 16 µg/mL

O=C(N/N=C/c1cc(Br)cc(Br)c1O)c1cc(Br)co1
Activity (Cryptococcus neoformans [5]): Active | selectivity ratio [2]: 267 | MIC80 (Cryptococcus neoformans [1]): 0.06 µg/mL (≈ 0.129 µM) | CC50 [4]: 16 µg/mL (≈ 34.3 µM)

O=C(N/N=C/c1ccc(Br)cc1O)c1ccc[nH]1
MIC80 (Cryptococcus neoformans [1]): 2 µg/mL (≈ 6.49 µM)

O=C(N/N=C/c1cc(Br)ccc1O)c1cc2ccccc2cn1
MIC80 (Cryptococcus neoformans [1]): > 16 µg/mL

O=C(N/N=C/c1cc(Br)cc(Br)c1O)c1cc[nH]c1
MIC80 (Cryptococcus neoformans [1]): 2 µg/mL (≈ 5.17 µM)

O=C(N/N=C/c1cc(Br)cc(Br)c1O)c1cccs1
MIC80 (Cryptococcus neoformans [1]): 4 µg/mL (≈ 9.9 µM)

O=C(N/N=C/c1c(O)ccc2ccccc12)c1ccco1
MIC80 (Cryptococcus neoformans [1]): > 16 µg/mL

O=C(N/N=C/c1cc(Br)ccc1O)c1cc(Br)c(Br)s1
selectivity ratio [2]: 267 | MIC80 (Cryptococcus neoformans [1]): 0.12 µg/mL (≈ 0.248 µM) | MFC100 (Cryptococcus neoformans [6]): 0.25 µg/mL (≈ 0.518 µM) | CC50 [4]: 32 µg/mL (≈ 66.3 µM)

O=C(N/N=C/c1cc(Br)cc(Br)c1O)c1cc2cc(Br)ccc2o1
MIC80 (Cryptococcus neoformans [1]): > 16 µg/mL

O=C(N/N=C/c1c(O)ccc2ccccc12)c1cc(Br)c[nH]1
MIC80 (Cryptococcus neoformans [1]): > 16 µg/mL

C[C@@H](c1ncncc1F)[C@](O)(Cn1cncn1)c1ccc(F)cc1F [VORICONAZOLE]
MIC80 (Aspergillus fumigatus): 0.125 µg/mL (≈ 0.358 µM)

O=C(N/N=C/c1ccc(Br)cc1O)c1cc(Br)c(Br)s1
fractional inhibitory concentration index (FICI) (Cryptococcus neoformans [7]): 0.78 | MIC80 (Cryptococcus neoformans [8]): 0.001 µg/mL | selectivity ratio [2]: > 533 | fractional inhibitory concentration index (FICI) (Cryptococcus neoformans [9]): 0.78 | fractional inhibitory concentration index (FICI) (Cryptococcus neoformans [10]): 0.6 | MIC80 (Cryptococcus neoformans [11]): 0.001 µg/mL | Activity (Cryptococcus neoformans [12]): inactive | MIC80 (Cryptococcus neoformans [1]): 0.002 µg/mL (≈ 0.00414 µM) | MFC100 (Cryptococcus neoformans [6]): 0.5 µg/mL (≈ 1.04 µM) | MIC80 (Candida albicans): 0.125 µg/mL (≈ 0.259 µM) | MIC80 (Aspergillus fumigatus): 0.06 µg/mL (≈ 0.124 µM) | CC50 [4]: > 32 µg/mL | Activity (Cryptococcus neoformans [13]): inactive | Activity (Cryptococcus neoformans [14]): inactive | MIC80 (Cryptococcus neoformans [15]): 0.001 µg/mL

O=C(N/N=C/c1c(O)ccc2ccccc12)c1ccc(C(F)(F)F)s1
selectivity ratio [2]: 17.1 | MIC80 (Cryptococcus neoformans [1]): 0.007 µg/mL (≈ 0.0192 µM) | MFC100 (Cryptococcus neoformans [6]): 0.25 µg/mL (≈ 0.686 µM) | CC50 [4]: 0.12 µg/mL (≈ 0.329 µM)

O=C(N/N=C/c1cc(Br)ccc1O)c1cncc(Br)c1
Activity (Cryptococcus neoformans [5]): Active | selectivity ratio [2]: 4 | MIC80 (Cryptococcus neoformans [1]): 1 µg/mL (≈ 2.51 µM) | CC50 [4]: 4 µg/mL (≈ 10 µM)

O=C(N/N=C/c1cc(Br)ccc1O)c1nc2cc(Br)ccc2[nH]1
MIC80 (Cryptococcus neoformans [1]): > 16 µg/mL

O=C(N/N=C/c1ccc(Br)cc1O)c1ncc(Br)cn1
MIC80 (Cryptococcus neoformans [1]): > 16 µg/mL

O=C(N/N=C/c1c(O)ccc2ccccc12)c1cc(Br)co1
MIC80 (Cryptococcus neoformans [1]): > 16 µg/mL

O=C(N/N=C/c1cc(Br)cc(Br)c1O)c1cc2cc(Br)ccc2cn1
MIC80 (Cryptococcus neoformans [1]): > 16 µg/mL

O=C(N/N=C/c1cc(Br)ccc1O)c1cc(Br)co1
Activity (Cryptococcus neoformans [5]): Active | selectivity ratio [2]: 64 | MIC80 (Cryptococcus neoformans [1]): 0.25 µg/mL (≈ 0.644 µM) | CC50 [4]: 16 µg/mL (≈ 41.2 µM)

O=C(N/N=C/c1ccc(Br)cc1O)c1csc(Br)c1
selectivity ratio [2]: > 128 | MIC80 (Cryptococcus neoformans [1]): 0.25 µg/mL (≈ 0.619 µM) | MFC100 (Cryptococcus neoformans [6]): 0.5 µg/mL (≈ 1.24 µM) | CC50 [4]: > 32 µg/mL

O=C(N/N=C/c1cc(Br)ccc1O)c1ccco1
MIC80 (Cryptococcus neoformans [1]): 2 µg/mL (≈ 6.47 µM)

Cc1ccc2c(C)c(C(=O)N/N=C/c3cc(Br)cc(Br)c3O)oc2c1
MIC80 (Cryptococcus neoformans [1]): > 16 µg/mL
